Laboratory results reported in patent US20020183290A1, “Adrenergic receptor antagonists selective for both alpha1A-and alpha1D-subtypes and uses therefor” (Recordati S.A., Chemical and Pharmaceutical Company, priority 2001, published 2002).
Where two headings read alike, the source gives them in different places.

Key:
[1] = test system: conscious rats with partial urethral obstruction; experiment: Cystometry in conscious rats obstructed by partial urethra ligature (unstable-bladder contractions); assay type: in vivo, rat; conditions: for inhibition in vivo at 0.3 mg/kg / inhibition in vivo at 1 mg/kg / inhibition in vivo at 0.1 mg/kg: 2 min; for Amplitude of non-effective micturition contractions, After Treat. / Frequency (number) of non-effective micturition contractions, After Treat.: after treatment; for Activity as inhibitors of unstable-bladder contractions (in words): obstructed conscious rats, summary of Tables 1 and 2
Excerpt: A useful animal model system for measuring such pharmacological activity is, without limitation, cystometry in conscious rats with partial bladder-neck obstruction. […] This model is reported in the literature as related to LUTS occurring in patients having obstructive urethral syndromes (Michel, 2000, Drugs of Today. 386 (Supp. B2): 3-6)
In order to obtain a partial obstruction of the urethra, the method previously reported by Malgren (Nalgren et al., 1987, J. Urol. 137:1291-1294; 1988, Neurourol. Urodyn. 6:371), was followed with minor modifications (Guarneri et al., 1991, Pharmacol. Res. 24:263).
Female rats of the Sprague-Dawley strain [Crl:CD(SD)BR, from Charles River Italia, Calco, Como, Italy] weighing 225-275 g were used. The animals were maintained in constant temperature and humidity conditions, on a forced 12-hour light-dark cycle and with food and water ad libitum for at least one week before the experiment.
After being anaesthetized with 3 ml/kg i.p. equitensin (pentobarbital 1.215 g, chloral hydrate 5.312 g, magnesium sulphate 2.657 g, ethanol 12.5 ml, propylene glycol 49.5 ml, distilled water to 125 ml of final volume), the rats were placed in a supine position and the bladder and urethra were exposed via an incision in the shaven abdomens and gently pulling away the muscle portion. The urethra was cannulated with a polyethylene tube with an outside diameter of 1.22 mm, and the urinary bladder was then emptied and, via the cannula introduced through the urethra, filled with physiological saline. A silk (Ethicon 3/0) ligature was placed around the urethra with the cannula inside and the intraurethral cannula was then removed. The abdominal incision was sutured and, immediately after the operative procedure, antibiotic medication (penicillin G 200 000 I.U./kg i.p. and streptomycin 260 mg/kg i.p.) was performed.
Three weeks after the procedure for partially obstructing the urethra, the animals were prepared for cystometry by surgical insertion into the bladder of a catheter, through which the bladder was gradually filled.
The rats, anaesthetised with equitensin 3 ml/kg i.p., were placed in a supine position and, via an incision of about 10 mm in the abdominal wall, the urinary bladder was exposed and gently freed from surrounding tissues.
The urinary bladder was emptied manually and cannulated, via a small incision at the bladder top, with a polyethylene cannula (type PE-50, 0.58 mm I.D. ×0.96 mm O.D.), which was permanently secured to the bladder with silk thread.
The cannula was exposed through a subcutaneous tunnel in the retroscapular area, where it was fastened with a plastic adapter, in order to avoid the risk of removal by the animal. After washing the urinary bladder with physiological saline, the catheter was sealed using a small flame and the abdominal incision was sutured.
To allow evaluation of the effect of a test compound after intravenous administration, the jugular vein was cannulated with a polyethylene cannula (type PE-50, 0.58 mm I.D.×0.96 mm O.D.) filled with heparinised physiological saline. As for the bladder catheter, this cannula, too, was exteriorised, secured and sealed in the retroscapular area.
Two days after the operation, the rats, fasted overnight, were placed in Bollman's cages or in Bollman's cages modified so as to have an opening in the bottom to allow collection of urinated fluid.
After an adaptation period of 20 minutes, the free end of the bladder cannula was connected to a pressure transducer and a special apparatus which allowed infusion into the urinary bladder of physiological saline at 37° C. at a constant rate of 10 ml/hour. Intravesical pressure changes caused by bladder filling were recorded by the pressure transducer which was connected to a recording polygraph.
From the cystometrograms, the frequency and mean amplitude of spontaneous bladder contractions not inducing micturition, termed “unstable-bladder contractions” (UBC), within 2 minutes prior to micturition were evaluated. […]

[2] = biological target: T1, cloned α1a-adrenoceptor subtype (Homo sapiens, UniProt P35348); experiment: Radioligand binding assay ([3H]prazosin), cloned α1a-adrenoceptor subtype; conditions: read-out: Binding Affinity (Ki nM) α1a
T1 construct: expressed in transfected cells
T1 sequence (P35348 1-466): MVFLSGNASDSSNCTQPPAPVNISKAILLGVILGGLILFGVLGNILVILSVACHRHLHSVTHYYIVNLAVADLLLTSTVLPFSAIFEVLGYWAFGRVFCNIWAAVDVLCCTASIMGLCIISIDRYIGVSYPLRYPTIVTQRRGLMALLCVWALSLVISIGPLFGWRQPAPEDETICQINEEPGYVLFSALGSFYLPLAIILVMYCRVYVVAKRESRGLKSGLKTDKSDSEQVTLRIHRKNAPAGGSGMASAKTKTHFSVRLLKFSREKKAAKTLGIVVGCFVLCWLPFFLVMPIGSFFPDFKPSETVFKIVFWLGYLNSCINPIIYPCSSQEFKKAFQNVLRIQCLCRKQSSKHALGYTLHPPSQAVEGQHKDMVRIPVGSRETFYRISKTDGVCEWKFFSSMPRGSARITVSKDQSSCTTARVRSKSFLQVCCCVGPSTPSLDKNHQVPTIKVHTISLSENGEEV
Description: (§1) Springer-Verlag, pp. 10-12). […] The results from these assays are used to calculate a measure of receptor selectivity, expressed as the ratio of affinities (Ki) for a given pair of receptors.
(§2) Determination of affinity for cloned subtypes of α1-adrenoceptor subtypes was performed in membranes from cells transfected by electroporation with DNA expressing the genes encoding each α1-adrenoceptor subtype.
(§3) Non-specific binding was determined in the presence of 10 μM phentolamine. Incubation was stopped by addition of ice-cold Tris buffer and rapid filtration through 0.2% polyethyleneimine-pretreated Schleicher & Schuell GF52 filters. […] Data were expressed as mean Ki.

[3] = biological target: T2, cloned α1d-adrenoceptor subtype (Homo sapiens, UniProt P25100); experiment: Radioligand binding assay ([3H]prazosin), cloned α1d-adrenoceptor subtype; conditions: read-out: Binding Affinity (Ki nM) α1d
T2 construct: expressed in transfected cells
T2 sequence (P25100 1-572): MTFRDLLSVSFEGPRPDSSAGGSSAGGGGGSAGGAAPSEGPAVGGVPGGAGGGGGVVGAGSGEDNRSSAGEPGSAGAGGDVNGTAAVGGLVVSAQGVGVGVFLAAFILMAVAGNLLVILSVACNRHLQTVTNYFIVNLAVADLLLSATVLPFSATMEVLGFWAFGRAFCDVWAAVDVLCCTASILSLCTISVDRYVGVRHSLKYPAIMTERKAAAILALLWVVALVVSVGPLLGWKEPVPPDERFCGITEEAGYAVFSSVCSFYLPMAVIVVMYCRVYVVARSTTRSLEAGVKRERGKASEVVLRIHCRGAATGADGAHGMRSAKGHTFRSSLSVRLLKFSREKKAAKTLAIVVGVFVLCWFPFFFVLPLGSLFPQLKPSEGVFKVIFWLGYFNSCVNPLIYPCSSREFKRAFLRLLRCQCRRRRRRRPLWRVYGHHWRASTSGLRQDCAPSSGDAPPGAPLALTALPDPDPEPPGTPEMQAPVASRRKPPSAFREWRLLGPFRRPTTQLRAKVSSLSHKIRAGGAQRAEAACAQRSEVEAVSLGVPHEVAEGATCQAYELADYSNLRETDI
Description: as §1, §2, §3

[4] = biological target: T3, cloned α1b-adrenoceptor subtype (Homo sapiens, UniProt P35368); experiment: Radioligand binding assay ([3H]prazosin), cloned α1b-adrenoceptor subtype; conditions: read-out: Binding Affinity (Ki nM) α1b
T3 construct: expressed in transfected cells
T3 sequence (P35368 1-520): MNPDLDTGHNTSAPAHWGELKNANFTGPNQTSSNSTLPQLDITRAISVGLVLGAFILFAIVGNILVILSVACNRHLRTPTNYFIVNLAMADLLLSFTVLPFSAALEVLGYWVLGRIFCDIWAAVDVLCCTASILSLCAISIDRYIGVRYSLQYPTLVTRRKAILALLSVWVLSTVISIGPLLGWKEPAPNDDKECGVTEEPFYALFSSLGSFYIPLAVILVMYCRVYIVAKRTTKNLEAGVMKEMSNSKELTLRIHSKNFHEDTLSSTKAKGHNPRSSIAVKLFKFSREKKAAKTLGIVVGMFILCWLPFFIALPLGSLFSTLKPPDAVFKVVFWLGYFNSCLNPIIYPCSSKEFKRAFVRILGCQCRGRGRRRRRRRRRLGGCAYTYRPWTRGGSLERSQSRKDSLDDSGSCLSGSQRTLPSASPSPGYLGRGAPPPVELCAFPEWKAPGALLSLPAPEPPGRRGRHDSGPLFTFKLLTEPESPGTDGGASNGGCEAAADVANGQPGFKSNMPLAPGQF
Description: as §1, §2, §3

[5] = obstructed rat, 0.3 mg/kg, 2 minutes before micturition, read-out: % inhibition of frequency of non-effective micturition contractions
[6] = obstructed rat, 2 minutes before micturition, read-out: % inhibition of frequency of non-effective micturition contractions
[7] = Rattus norvegicus, read-out: % inhibition of amplitude of non-effective micturition contractions
[8] = Rattus norvegicus, read-out: % inhibition of frequency of non-effective micturition contractions
[9] = obstructed rat, 0.3 mg/kg, 2 minutes before micturition, read-out: % inhibition of amplitude of non-effective micturition contractions
[10] = obstructed rat, 2 minutes before micturition, read-out: % inhibition of amplitude of non-effective micturition contractions
[11] = obstructed rat, 0.1 mg/kg, 2 minutes before micturition, read-out: % inhibition of amplitude of non-effective micturition contractions
[12] = obstructed rat, 0.1 mg/kg, 2 minutes before micturition, read-out: % inhibition of frequency of non-effective micturition contractions

Row | Ki [3] [nM] | Ki [4] [nM] | SMILES | inhibition in vivo at 0.3 mg/kg [1, 5] [%] | inhibition in vivo at 1 mg/kg [1, 6] [%] | Amplitude of non-effective micturition contractions, After Treat. ([1]; 0.1 mg/kg) [mmHg] | Frequency (number) of non-effective micturition contractions, After Treat. ([1]; 0.1 mg/kg) | Amplitude of non-effective micturition contractions, After Treat. ([1]; 0.3 mg/kg) [mmHg] | Frequency (number) of non-effective micturition contractions, After Treat. ([1]; 0.3 mg/kg) | Activity as inhibitors of unstable-bladder contractions (in words) [1] | inhibition in vivo at 0.3 mg/kg [1, 9] [%] | inhibition in vivo at 1 mg/kg [1, 10] [%] | Amplitude of non-effective micturition contractions, After Treat. ([1]; 1.0 mg/kg) [mmHg] | Frequency (number) of non-effective micturition contractions, After Treat. ([1]; 1.0 mg/kg) | other results
1 | – | – | COc1ccccc1N1CCN(CCCNC(=O)c2csc3c(=O)cc(C(F)(F)F)oc23)CC1 [Compound A, N-{3-[4-(2-methoxyphenyl)-1-piperazinyl]propyl}-7-keto-5-trifluoromethyl-7H-thieno [3,2-b]pyran-3-carboxamide] | 44 | 67 | – | – | – | – | – | – | – | – | – | –
2 | 0.33 | – | Cc1onc(-c2ccccc2)c1C(=O)NCCCN1CCN(c2cc(F)ccc2OCC(F)(F)F)CC1 [Compound C, N-{3-[4-[5-fluoro-2-(2,2,2-trifluoroethoxy)phenyl]-1-piperazinyl]propyl}-3-phenyl-5-methylisoxazole-4-carboxamide] | – | – | – | – | – | – | – | – | – | – | – | Ki [2]: 0.05 nM
3 | – | – | COc1cc2nc(N3CCN(C(=O)c4ccco4)CC3)nc(N)c2cc1OC [Prazosin, prazosin] | – | – | 3.1 ± 0.9 | 2.8 ± 0.8 | 2.1 ± 1.5 | 2.3 ± 1.1 | marked and dose-dependent reduction | – | – | – | – | inhibition in vivo at 0.1 mg/kg [1, 7]: 63%; inhibition in vivo at 0.3 mg/kg [1, 7]: 87%; inhibition in vivo at 0.1 mg/kg [1, 8]: 48%; inhibition in vivo at 0.3 mg/kg [1, 8]: 74%
4 | 0.13 | 19 | O=C1CC2(CCCC2)CC(=O)N1CCN1CCN(c2cc(Cl)ccc2Cl)CC1 [Rec 26D/038] | 38 | 27 | – | – | 6.6 ± 1.5 | 3.6 ± 0.7 | poorly active | 39 | 21 | 7.5 ± 1.6 | 4.5 ± 1.2 | –
5 | 0.11 | 11 | O=C1CC2(CCCC2)CCN1CCN1CCN(c2cc(Cl)ccc2Cl)CC1 [Rec 26D/073] | 31 | 25 | – | – | 6.2 ± 1.6 | 2.8 ± 0.7 | poorly active | 16 | 18 | 7.5 ± 1.2 | 4.4 ± 0.7 | –
6 | – | – | COc1cc2nc(N3CCN(C(=O)C4CCCO4)CC3)nc(N)c2cc1OC (stereo not shown) [Terazosin, terazosin] | 65 | 93 | 6.6 ± 0.7 | 4.0 ± 0.3 | 3.7 ± 1.1 | 1.9 ± 0.5 | marked and dose-dependent reduction | 64 | 86 | 0.8 ± 0.8 | 0.3 ± 0.3 | inhibition in vivo at 0.1 mg/kg [1, 11]: 31%; inhibition in vivo at 0.1 mg/kg [1, 12]: 30%

Row | SMILES | Ki [3] [nM] | Ki [4] [nM] | inhibition in vivo at 0.3 mg/kg [1, 5] [%] | inhibition in vivo at 1 mg/kg [1, 6] [%] | Amplitude of non-effective micturition contractions, After Treat. ([1]; 0.1 mg/kg) [mmHg] | Frequency (number) of non-effective micturition contractions, After Treat. ([1]; 0.1 mg/kg) | Amplitude of non-effective micturition contractions, After Treat. ([1]; 0.3 mg/kg) [mmHg] | Frequency (number) of non-effective micturition contractions, After Treat. ([1]; 0.3 mg/kg) | Activity as inhibitors of unstable-bladder contractions (in words) [1] | inhibition in vivo at 0.3 mg/kg [1, 9] [%] | inhibition in vivo at 1 mg/kg [1, 10] [%] | Amplitude of non-effective micturition contractions, After Treat. ([1]; 1.0 mg/kg) [mmHg] | Frequency (number) of non-effective micturition contractions, After Treat. ([1]; 1.0 mg/kg) | other results
7 | CCOc1ccccc1OCCN[C@H](C)Cc1ccc(OC)c(S(N)(=O)=O)c1 [Tamsulosin, tamsulosin] | – | 0.94 | – | – | 3.7 ± 1.1 | 1.9 ± 0.7 | – | – | very potent | – | – | – | – | inhibition in vivo at 0.1 mg/kg [1, 11]: 52%; inhibition in vivo at 0.1 mg/kg [1, 12]: 61%; Ki ([3]; cloned receptor, cell membranes, 0.2 nM [3H]prazosin, mean Ki): 0.16 nM
